Reference: patent US9061981B2, “Diphenyl substituted cyclohexane derivatives, useful as modulators of the estrogen receptors beta” (Acadia Pharmaceuticals Inc., priority 2011, dated 2015)
Several values for one entry are separate records, joined by “and”; a condition that tells them apart may be missing. Equal entries are not always repeated.

Legend:
[1] = Unidirectional permeability across MatTek EpiOral buccal tissue; type: in vitro ADME, human; details: test compound 10 μM co-dosed with controls atenolol and caffeine 100 μM, DPBS pH 7.4, 37° C.
Procedure: EpiOral→tissues plated in 24-well plates were obtained from MatTek Corporation (Ashland, Mass., USA). The assay buffer was Dulbeccos' Phosphate Buffered Saline (DPBS) without Ca & Mg chloride, pH 7.4. Each test compound was co-dosed with the two control compounds. Targeting dosing concentrations were 10 μM for each test compound and 100 μM for the two control compounds. Prior to the permeability assay onset, the tissues were preequilibrated in a pre-warmed EpiOral assay medium for one hour at 37° C. in a 5% CO2 incubator. The EpiOral assay medium was aspirated after the pre-equilibration, and the tissues were washed twice with the DPBS buffer. The receiver chambers were filled with 0.75 mL of the DPBS buffer, while the donor chambers received 0.4 mL of the dosing solutions. The assay plates were placed at 37° C. in a 5% CO2 incubator. The receiver samples (200 μL) were collected at 30, 60, and 120 minutes, and replaced with an equal volume of fresh pre-warmed receiver buffer (except for the last time point of 120 minutes). The donor sides were sampled at 0 and 120 minutes. The test compounds were then analyzed using LC-MS/MS.

[2] = Microsomal bioavailability (Table 2); type: in vitro ADME; details: read-out: Microsomal bioavailability F (%)
[3] = Metabolic stability in liver microsomes, rat; type: in vitro ADME; details: low value = metabolically stable
Procedure: (§1) Also the metabolic stability in liver microsomes was tested for some compounds.

ERα [4] = biological target: T1, ERα (Homo sapiens, UniProt P03372); assay: Luciferase reporter gene assay (3*ERE) in HEK293 cells, ERα; type: cell-based; set-up: expressed in transfected cells; host or cells: transient transfection; details: 48 hours; for EC50: na = not active, read-out: Luciferase Erα pEC50 (converted)
T1 sequence (P03372 1-595): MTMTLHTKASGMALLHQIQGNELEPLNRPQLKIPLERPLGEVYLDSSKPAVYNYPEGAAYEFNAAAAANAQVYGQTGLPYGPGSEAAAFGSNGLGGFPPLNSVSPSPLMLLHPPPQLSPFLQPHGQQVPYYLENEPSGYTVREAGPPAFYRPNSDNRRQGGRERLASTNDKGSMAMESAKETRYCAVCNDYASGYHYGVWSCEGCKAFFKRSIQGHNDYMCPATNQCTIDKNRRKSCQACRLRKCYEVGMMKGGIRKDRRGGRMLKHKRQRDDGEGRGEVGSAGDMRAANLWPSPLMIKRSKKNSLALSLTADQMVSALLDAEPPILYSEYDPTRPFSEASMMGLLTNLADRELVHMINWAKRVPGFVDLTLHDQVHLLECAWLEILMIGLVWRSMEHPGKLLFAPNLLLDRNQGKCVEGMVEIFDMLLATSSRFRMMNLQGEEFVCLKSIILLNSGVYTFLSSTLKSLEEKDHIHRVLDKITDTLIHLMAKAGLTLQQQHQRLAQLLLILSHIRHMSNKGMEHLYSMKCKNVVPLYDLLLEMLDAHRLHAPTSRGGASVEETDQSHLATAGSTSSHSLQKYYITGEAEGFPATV
Procedure: (§2) HEK293 cells were grown to 70% confluency in DMEM containing 10% calf serum (Hyclone) prior to transfection. On the day of transfection (day 1), expression vectors for ERα or ERβ were cotransfected along a construct containing a synthetic 3*ERE upstream of the luciferase gene (Panomics), using Polyfect (Qiagen) per manufacturer's recommendations (ERE being estrogen response element). Sixteen hours post-transfection, cells were incubated in serum free DMEM. […] Cells extracts were then obtained by lyzing and the Luciferase activity measured, all of these steps performed using a commercially available kit (Promega).

ERβ [5] = biological target: T2, ERβ (Homo sapiens, UniProt Q92731); assay: R-SAT functional assay, ERβ; type: cell-based; set-up: expressed in transfected cells; host or cells: transient transfection
ERα [6] = biological target: T1, ERα; assay: Competitive 3H-estradiol binding assay, ERα; details: 1 nM 3H-estradiol, HEK293T cytosolic extract; read-out: Binding ERα pKi (converted)
Procedure: (§3) HEK293T cells were transiently transfected for 48 hours with expression vectors encoding ERα or ERβ, before being serum starved for 4-6 hours. Cells were then harvested by scraping in ice-cold PBS and subsequently lysed using a cold buffer containing 10 mM Tris pH 7.4, 1 mM EDTA, 1 mM DTT before being subjected to polytron twice for 10 seconds. Cytosolic extracts were isolated by centrifugation at 15000 g for 30 minutes at 4° C. Competitive binding of the test compounds or the estradiol control was performed on 20 μL extract by overnight incubation at 4° C. in a total volume of 100 μL containing 1 nM ^3H-estradiol (Perkin Elmer, Boston, Mass.). The bound fraction was separated from the unbound one by the addition of 100 μL of Dextran coated charcoal, incubated for 10 minutes and subsequent centrifugation at 1000 rpm for 10 minutes. Samples (100 μL per sample) were then analyzed by liquid scintillation. Data was then analyzed using the curve fitting software GraphPad Prism.

ERα [7] = biological target: T1, ERα; assay: R-SAT functional assay, ERα; type: cell-based; set-up: expressed in transfected cells; host or cells: NIH-3T3 fibroblasts, transient transfection; details: NIH-3T3 cells; for EC50: na = not active, read-out: R-SAT Erα pEC50 (converted)
Text: (§4) R-SAT® (Receptor Selection and Amplification Technology) is a cell-based functional assay that allows one to monitor receptor-dependent proliferative responses and has been described elsewhere. […] This process is achieved by partial cellular transformation via loss of contact inhibition and growth factor dependency. Monitoring is achieved by transfecting the cells with a β-galactosidase reporter gene vector whose expression is under a constitutively active promoter. Briefly, NIH-3T3 fibroblasts were plated overnight in 96-wells plates in DMEM 10% calf serum (Hyclone) and grown to 60-70% confluency prior to transfection. Transient transfections were performed using Polyfect (Qiagen) according to manufacturer's instructions. Typically a transfection mix would consist of the receptor and the β-galactosidase expression vectors. Sixteen hours post-transfection, cells were incubated with different doses of ligand in DMEM containing 30% Ultraculture (Hyclone) and 0.4% calf serum (Hyclone) to generate a dose response curve. […] Plates were read using a microplate reader at 420 nm. Data from R-SAT® assays were fit to the equation: r=A+B(x/(x+c)), where A=minimum response, B=maximum response minus minimum response, c=EC50, r=response, and x=concentration of ligand. Curves were generated using the curve fitting softwares Excel Fit and GraphPad Prism (San Diego, Calif.). Luciferase Reporter Gene Assay

[8] = Metabolic stability in liver microsomes, human; type: in vitro ADME; details: low value = metabolically stable
Procedure: as §1

ERβ [9] = biological target: T2, ERβ; assay: Competitive 3H-estradiol binding assay, ERβ; set-up: expressed in transfected cells; host or cells: HEK293 cells, transient transfection
Procedure: as §3, with “Cells” for “HEK293T cells were transiently transfected for 48 hours with expression vectors encoding ERα or ERβ, before being serum starved for 4-6 hours. Cells”

ERβ [10] = biological target: T2, ERβ; assay: Luciferase reporter gene assay (3*ERE) in HEK293 cells, ERβ; type: cell-based; set-up: expressed in transfected cells; host or cells: HEK293 cells, transient transfection; details: for Emax: read-out: Luciferase Erβ % Eff
Procedure: as §2

ERβ [11] = biological target: T2, ERβ; assay: R-SAT functional assay, ERβ; type: cell-based; set-up: expressed in transfected cells; host or cells: transient transfection; remark: listed apart in the source
Text: as §4

Taxol-induced allodynia = assay: Taxol-induced neuropathy model; type: in vivo, male SD rats; details: for effect on Taxol-induced allodynia: s.c. (gabapentin i.p.), Compound 8 at 10 and 30 mg/kg, 2 hours post-dose
Procedure: Neuropathy was induced in male SD rats by 4×1 mg/kg consecutive daily doses of taxol as described (Naguib M, Diaz P, Xu J J, Astruc-Diaz F, Craig S, Vivas-Mejia P, Brown D L. MDA7: a novel selective agonist for CB2 receptors that prevents allodynia in rat neuropathic pain models. Br J. Pharmacol. 2008 December; 155(7):1104-16). The presence of tactile allodynia (von Frey filament 50% response threshold of <5 g) was confirmed prior to inclusion in the study. Drugs were administered sub-cutaneously (s.c.) except gabapentin was given intra-peritoneally (i.p.). Doses are given in mg/kg. * p<0.05.
Allodynia was assessed by applying a light tactile stimulus (Von Frey hairs) to the plantar surface of the surgical paw until the 50% threshold was established. A positive response was recorded if the paw was sharply withdrawn. Eight VonFrey hairs were used (3.61, 3.84, 4.08, 4.31, 4.56, 4.74, 4.93 and 5.18). MPE (%) was calculated as [(Rdrug−Rveh)/(Rsham−Rveh)]*100% where Rveh was 4 and Rsham was 13. Repeat dosing (FIG. 10C) was performed by administering the indicated doses of Compound 8 once daily via the s.c. route. Efficacy was measured 2 hours post-dose.

[12] = NIH3T3, read-out: R-SAT Erβ % Eff
[13] = NIH3T3, NIH-3T3 cells, read-out: R-SAT Erβ % Eff

T2 sequence (Q92731 whole entry, species assumed): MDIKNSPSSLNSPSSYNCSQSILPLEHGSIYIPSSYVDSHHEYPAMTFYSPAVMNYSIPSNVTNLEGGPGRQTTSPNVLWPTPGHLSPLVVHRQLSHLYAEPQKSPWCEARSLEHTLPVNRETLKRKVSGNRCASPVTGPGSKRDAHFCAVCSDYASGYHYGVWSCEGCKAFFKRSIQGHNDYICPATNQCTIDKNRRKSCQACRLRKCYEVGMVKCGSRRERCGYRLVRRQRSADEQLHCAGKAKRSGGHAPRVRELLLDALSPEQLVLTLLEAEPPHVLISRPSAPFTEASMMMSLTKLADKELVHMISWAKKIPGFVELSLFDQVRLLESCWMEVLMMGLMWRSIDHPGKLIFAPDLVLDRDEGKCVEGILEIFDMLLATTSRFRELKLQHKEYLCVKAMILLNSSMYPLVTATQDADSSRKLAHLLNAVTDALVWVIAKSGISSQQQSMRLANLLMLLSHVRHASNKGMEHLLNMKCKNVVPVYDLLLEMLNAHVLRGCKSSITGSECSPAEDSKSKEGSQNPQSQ

Row | SMILES | apparent permeability coefficient (Papp) across MatTek EpiOral buccal tissues [1] | Microsomal bioavailability (predicted from microsomes) [2] | microsomal CLint [3] | Luciferase Erα % Eff (ERα [4]) | EC50 (ERβ [5]) | Ki (ERα [6]) | R-SAT Erα % Eff (ERα [7]) | EC50 (ERα [7]) | microsomal CLint [8] | Ki (ERβ [9]) | EC50 (ERβ [10]) | Emax (ERβ [10]; HEK293, 48 h) | Emax (ERβ [11]; [12]) | EC50 (ERα [4]) | Emax (ERβ [10]; HEK293 cells, 48 hours) | Emax (ERβ [11]; [13]) | effect on Taxol-induced allodynia (Taxol-induced allodynia) | maximum effect (MPE) (Taxol-induced allodynia; gabapentin i.p.)
1 | Cn1c(=O)c2c(ncn2C)n(C)c1=O [caffeine] | 27.5 ×10⁻⁶ cm/s and 22.3 ×10⁻⁶ cm/s |  |  |  |  |  |  |  |  |  |  |  |  |  |  |  |  | 
2 | COc1ccc(C2(c3ccccc3F)CCC(F)(F)CC2)cc1 [Compound 9, 1-(4,4-Difluoro-1-(4-methoxyphenyl)cyclohexyl)-2-fluorobenzene] |  | 19.6% |  |  |  |  |  |  |  |  |  |  |  |  |  |  |  | 
3 | Oc1ccc(C2(c3ccccc3F)CCC(F)(F)CC2)cc1F [Compound 10, 4-(4,4-Difluoro-1-(2-fluorophenyl)cyclohexyl)-2-fluorophenol] |  |  | 95 µL/min/mg | 2% | 2.51 nM | 251 nM | 100% | 1000 nM | 11 µL/min/mg | 5.01 nM | 2 nM | 55% | 57% |  |  |  |  | 
4 | Oc1ccc(C2(c3ccccc3F)CCCCC2)cc1 [Compound 152] |  |  | 405 µL/min/mg | 48% | 12.6 nM |  | 29% | 1580 nM | 27 µL/min/mg | 63.1 nM | 20 nM |  |  | 3980 nM | 126% | 69% |  | 
5 | N#CC(Cc1ccc(O)cc1)c1ccc(O)cc1 (stereo not drawn) [DPN] |  |  |  |  |  |  |  |  |  |  |  |  |  |  |  |  | active | 
6 | NCC1(CC(=O)O)CCCCC1 [gabapentin] |  |  |  |  |  |  |  |  |  |  |  |  |  |  |  |  | relatively ineffective | 39%
7 | Oc1ccc(C2(c3ccccc3Cl)CCCCC2)cc1 [Compound 558] |  | 2% |  | 37% | 6.31 nM | 1000 nM | 48% | 1260 nM |  | 50.1 nM | 2.51 nM |  |  | 1580 nM | 101% | 73% |  | 
8 | Oc1ccc(C2(c3ccccc3Cl)CCC(F)(F)CC2)cc1 [Compound 12] |  |  | 147 µL/min/mg | 30% | 3.16 nM | 100 nM | 74% |  |  | 3.98 nM | 0.631 nM |  |  |  | 74% | 42% |  | 
9 | Oc1ccc(C2(c3ccccc3Cl)CCC(F)(F)CC2)cc1F [Compound 14] |  |  | 113 µL/min/mg | 82% | 1.58 nM | 50.1 nM | 145% | 100 nM |  | 3.98 nM | 0.631 nM | 52% | 60% |  |  |  |  | 
